The record followed here is ChEMBL document CHEMBL5233237, “Agonist and antagonist ligands of toll-like receptors 7 and 8: Ingenious tools for therapeutic purposes” (Eur J Med Chem, 2020).

One may read the EC50 as the concentration at which the effect is half-maximal. A word on the Kd: it is a measure of binding affinity in units of concentration.

The subject of one test is B16. Briefly: Antitumor activity against mouse B16 cells xenografted in mouse assessed as inhibition of tumor growth at 2 mg measured after 3 days. Set-up: scale not given: the % may be the effect or the level left. The format is functional. Conditions: time 3 day.
Test [1] has as its target T1, Toll-like receptor 8 (Homo sapiens, UniProt Q9NR97).
T1 sequence (Q9NR97 whole entry): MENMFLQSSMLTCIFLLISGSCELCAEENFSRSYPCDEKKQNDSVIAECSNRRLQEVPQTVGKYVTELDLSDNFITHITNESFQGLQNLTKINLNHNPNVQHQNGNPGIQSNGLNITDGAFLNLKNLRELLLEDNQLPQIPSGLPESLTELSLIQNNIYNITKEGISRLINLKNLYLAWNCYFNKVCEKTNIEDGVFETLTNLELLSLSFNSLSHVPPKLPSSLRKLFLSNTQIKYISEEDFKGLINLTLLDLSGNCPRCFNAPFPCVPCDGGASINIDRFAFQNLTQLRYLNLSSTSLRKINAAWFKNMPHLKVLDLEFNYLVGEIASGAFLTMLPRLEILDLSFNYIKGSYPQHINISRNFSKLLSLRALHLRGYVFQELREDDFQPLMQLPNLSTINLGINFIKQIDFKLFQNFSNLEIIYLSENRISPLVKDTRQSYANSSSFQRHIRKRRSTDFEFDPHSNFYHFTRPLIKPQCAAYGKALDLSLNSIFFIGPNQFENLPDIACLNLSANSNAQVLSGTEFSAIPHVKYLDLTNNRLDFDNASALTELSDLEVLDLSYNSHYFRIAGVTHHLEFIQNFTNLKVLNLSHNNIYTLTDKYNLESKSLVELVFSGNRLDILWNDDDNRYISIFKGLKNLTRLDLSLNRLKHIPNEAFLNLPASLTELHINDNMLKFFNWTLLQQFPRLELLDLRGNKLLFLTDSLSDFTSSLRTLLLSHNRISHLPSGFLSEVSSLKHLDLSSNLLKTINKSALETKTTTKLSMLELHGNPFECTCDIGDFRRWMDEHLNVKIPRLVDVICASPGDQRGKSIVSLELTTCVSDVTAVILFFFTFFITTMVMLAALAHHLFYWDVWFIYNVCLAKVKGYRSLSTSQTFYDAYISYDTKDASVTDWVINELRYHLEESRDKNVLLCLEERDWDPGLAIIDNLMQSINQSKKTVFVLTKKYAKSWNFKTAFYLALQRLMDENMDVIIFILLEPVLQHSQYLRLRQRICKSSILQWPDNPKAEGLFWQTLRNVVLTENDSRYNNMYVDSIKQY
In words: (§1) Agonist activity at human TLR8.

Test [2] concerns the target T2, Toll-like receptor 8 (Homo sapiens) (UniProt Q9NR97).
T2 sequence (whole entry): T1 sequence (Q9NR97 whole entry)
Described as §1. The note with it: filed as agonist.

The target in test [3] is Mitogen-activated protein kinase 3 (Homo sapiens, UniProt P27361). In words: Binding affinity to ERK1 (unknown origin) by surface plasmon resonance assay. In general terms: In SPR one partner is held on a chip, and binding of the other changes the refractive index at the surface.
Chain of Mitogen-activated protein kinase 3 (P27361 whole entry): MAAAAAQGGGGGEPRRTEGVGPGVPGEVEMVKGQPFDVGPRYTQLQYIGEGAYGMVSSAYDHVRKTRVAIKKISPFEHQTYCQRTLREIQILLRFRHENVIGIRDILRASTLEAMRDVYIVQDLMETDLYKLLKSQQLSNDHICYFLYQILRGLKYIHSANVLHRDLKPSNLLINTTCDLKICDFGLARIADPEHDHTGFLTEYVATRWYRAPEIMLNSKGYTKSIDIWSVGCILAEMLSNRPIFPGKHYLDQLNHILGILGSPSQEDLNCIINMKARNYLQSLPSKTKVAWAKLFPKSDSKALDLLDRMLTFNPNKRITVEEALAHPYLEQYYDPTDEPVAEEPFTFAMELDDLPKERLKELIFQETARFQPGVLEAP
Test [4] can be described thus: Binding affinity to RasGAP (unknown origin) by surface plasmon resonance assay. Set-up: species or system Homo sapiens.
Another test concerns Hepatitis C virus. Briefly: Antiviral activity against HCV infected in human Huh-7 cells assessed as reduction in HCV level at 1 to 10 uM measured after 24 h by real-time PCR method. The note with it: dose 1-10 µM. Set-up: scale not given: the % may be the effect or the level left. In general terms: Quantitative PCR measures a nucleic acid by following its amplification.
In the next test the test system is Mus musculus. In words: Potency index ratio of imiquimod MED to test compound MED for induction of IFN in po dosed mouse assessed as minimum effective dose. Format: functional.
Test [5] has as its target T1, Toll-like receptor 8. In words: Agonist activity at human TLR8 transfected in HEK-Blue hTLR8 cells. The format is cell-based.
Test [6] deals with T1, Toll-like receptor 8. In words: Agonist activity in TLR8 (unknown origin) expressed in HEK293 cells assessed as induction of NF-kappa activation. The format is cell-based.
The next test deals with T3, Toll-like receptor 7 (Homo sapiens, UniProt Q9NYK1).
T3 sequence (Q9NYK1 whole entry): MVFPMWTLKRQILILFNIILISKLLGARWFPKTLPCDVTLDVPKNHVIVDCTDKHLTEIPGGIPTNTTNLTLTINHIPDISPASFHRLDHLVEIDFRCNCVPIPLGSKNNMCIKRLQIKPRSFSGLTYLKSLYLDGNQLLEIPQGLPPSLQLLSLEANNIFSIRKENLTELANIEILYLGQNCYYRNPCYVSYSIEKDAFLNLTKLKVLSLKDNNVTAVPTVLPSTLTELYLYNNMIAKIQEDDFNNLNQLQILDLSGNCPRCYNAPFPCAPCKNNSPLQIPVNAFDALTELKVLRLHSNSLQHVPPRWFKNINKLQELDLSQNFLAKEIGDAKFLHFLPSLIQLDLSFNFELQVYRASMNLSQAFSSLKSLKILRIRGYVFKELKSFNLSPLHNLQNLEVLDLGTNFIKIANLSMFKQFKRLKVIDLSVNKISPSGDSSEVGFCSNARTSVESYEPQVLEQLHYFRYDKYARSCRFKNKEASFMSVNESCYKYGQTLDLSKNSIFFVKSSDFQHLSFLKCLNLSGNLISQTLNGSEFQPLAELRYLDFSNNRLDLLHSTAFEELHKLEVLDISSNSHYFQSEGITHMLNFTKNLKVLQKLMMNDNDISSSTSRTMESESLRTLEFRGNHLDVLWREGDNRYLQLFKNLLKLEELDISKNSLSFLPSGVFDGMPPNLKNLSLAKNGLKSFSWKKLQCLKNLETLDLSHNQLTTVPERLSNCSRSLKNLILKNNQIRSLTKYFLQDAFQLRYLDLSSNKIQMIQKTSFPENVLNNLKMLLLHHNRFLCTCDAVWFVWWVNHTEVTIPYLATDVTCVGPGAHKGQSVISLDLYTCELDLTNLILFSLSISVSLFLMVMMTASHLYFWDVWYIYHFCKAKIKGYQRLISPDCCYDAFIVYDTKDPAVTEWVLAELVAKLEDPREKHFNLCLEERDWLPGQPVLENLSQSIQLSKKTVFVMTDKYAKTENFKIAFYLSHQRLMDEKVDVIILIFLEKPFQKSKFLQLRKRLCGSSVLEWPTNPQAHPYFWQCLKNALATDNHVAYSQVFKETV
In words: Agonist activity at human TLR7 transfected in HEK-Blue hTLR7 cells. Format: cell-based.

On to `C=CCn1c(=O)n([C@@H]2O[C@H](CO)[C@@H](O)[C@H]2O)c2nc(N)[nH]c(=O)c21` [LOXORIBINE], for which the Activity in the test on B16 is reported as 96%.

Consider `CCCCc1nc2c(N)nc3ccccc3c2s1`, for which, on Toll-like receptor 8 [1], the concentration for a half-maximal effect (EC50) turned out to be 200 nM.

`CCCCc1nc2c(N)nc3cc(C(=O)OC)ccc3c2n1CCCCCN` returned an EC50 in test [2] of 1600 nM.

Turning to `Cc1cc(Nc2ncc3c(n2)N(C)C(=O)N(c2cc(NC(=O)c4cccc(C(F)(F)F)c4)ccc2C)C3)n(C)n1`, the Kd is 98 nM in test [3] and 212 nM in [4].

On to `COCCOc1nc(N)c2[nH]c(=O)n(Cc3ccccc3)c2n1`, for which the Activity with Hepatitis C virus is 60%. Moreover, in the test on Mus musculus, the Ratio turned out to be 100.

Turning to `CCOC(=O)C1=Cc2ccc(-c3cccc(C#N)c3)cc2N=C(N)C1`, the EC50 on Toll-like receptor 8 [5] is 30 nM; on Toll-like receptor 8 [6], 30 nM; on Toll-like receptor 7, 15000 nM.
